One data set relates to Lung. In words: Drug uptake in intratracheally dosed rat lung after 24 hrs. In kind it is ADME, organism-based. The following applies: in vivo, inhaled_or_intranasal.
A short description of data set [1]: Thermodynamic solubility of the crystalline compound in 0.1 M phosphate buffer at pH 7.4 at 25 degC after 24 hrs. It is filed as physicochemical. The following applies: read-out: Therm_solubility.
Data set [2] deals with Rattus norvegicus. In words: Antiinflammatory activity in rat assessed as inhibition of LPS-induced leukocyte influx to broncho-alveolar lavage fluid at 30 ug/kg, administered intratracheally 2 hrs prior to LPS challenge measured after 4 hrs relative to control. In kind it is functional. The following applies: inhaled or nasal.
The target of another data set is T1, Cytochrome P450 1A2 (Homo sapiens, UniProt P05177).
T1 sequence (P05177 whole entry): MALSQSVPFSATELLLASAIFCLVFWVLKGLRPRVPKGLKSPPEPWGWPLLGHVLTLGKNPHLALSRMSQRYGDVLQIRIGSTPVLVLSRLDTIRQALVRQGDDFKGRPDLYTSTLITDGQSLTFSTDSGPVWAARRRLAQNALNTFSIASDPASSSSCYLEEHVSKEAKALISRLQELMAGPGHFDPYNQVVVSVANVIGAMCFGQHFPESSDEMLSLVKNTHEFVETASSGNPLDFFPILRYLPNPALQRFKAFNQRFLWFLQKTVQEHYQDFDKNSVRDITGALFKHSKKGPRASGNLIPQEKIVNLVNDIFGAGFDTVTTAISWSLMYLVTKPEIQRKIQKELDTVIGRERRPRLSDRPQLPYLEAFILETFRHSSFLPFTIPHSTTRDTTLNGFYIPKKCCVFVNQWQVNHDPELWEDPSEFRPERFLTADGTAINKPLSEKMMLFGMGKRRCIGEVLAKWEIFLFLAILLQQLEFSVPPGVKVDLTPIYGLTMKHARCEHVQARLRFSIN
In words: Inhibition of CYP1A2 (unknown origin). It is filed as ADME.

In another data set the test system is Plasma. In words: Fraction unbound in human plasma. It is filed as ADME, cell-free.
Data set [3] concerns Mus musculus. In words: Antiinflammatory activity in mouse acute cigarette smoke model assessed as inhibition of neutrophil influx to broncho-alveolar lavage fluid at 10 ug/kg, administered intratracheally 30 mins prior to first cigarette smoke challenge every day for 4 days measured after 24 hrs post last cigarette smoke challenge relative to control. The following applies: inhaled or nasal.

Data set [4] can be described thus: Lipophilicity, log D of the compound at pH 7.4. In kind it is physicochemical. The settings on record: buffer.
In data set [5] the test system is Rattus norvegicus. In words: Antiinflammatory activity in rat assessed as inhibition of LPS-induced leukocyte influx to broncho-alveolar lavage fluid at 100 ug/kg, administered intratracheally 2 hrs prior to LPS challenge measured after 4 hrs relative to control. In kind it is functional. The following applies: inhaled or nasal.
For data set [6], the system named is Mus musculus. In words: Antiinflammatory activity in mouse acute cigarette smoke model assessed as inhibition of neutrophil influx to broncho-alveolar lavage fluid at 100 ug/kg, administered intratracheally 30 mins prior to first cigarette smoke challenge every day for 4 days measured after 24 hrs post last cigarette smoke challenge relative to control. The settings on record: inhaled or nasal.

Data set [7] in a line: Thermodynamic solubility of the amorphous compound in 0.1 M phosphate buffer at pH 7.4 at 25 degC after 24 hrs. In kind it is physicochemical. The following applies: read-out: Therm_solubility.
A further data set deals with T2, Glucocorticoid receptor (Rattus norvegicus, UniProt P06536).
T2 sequence (P06536 whole entry): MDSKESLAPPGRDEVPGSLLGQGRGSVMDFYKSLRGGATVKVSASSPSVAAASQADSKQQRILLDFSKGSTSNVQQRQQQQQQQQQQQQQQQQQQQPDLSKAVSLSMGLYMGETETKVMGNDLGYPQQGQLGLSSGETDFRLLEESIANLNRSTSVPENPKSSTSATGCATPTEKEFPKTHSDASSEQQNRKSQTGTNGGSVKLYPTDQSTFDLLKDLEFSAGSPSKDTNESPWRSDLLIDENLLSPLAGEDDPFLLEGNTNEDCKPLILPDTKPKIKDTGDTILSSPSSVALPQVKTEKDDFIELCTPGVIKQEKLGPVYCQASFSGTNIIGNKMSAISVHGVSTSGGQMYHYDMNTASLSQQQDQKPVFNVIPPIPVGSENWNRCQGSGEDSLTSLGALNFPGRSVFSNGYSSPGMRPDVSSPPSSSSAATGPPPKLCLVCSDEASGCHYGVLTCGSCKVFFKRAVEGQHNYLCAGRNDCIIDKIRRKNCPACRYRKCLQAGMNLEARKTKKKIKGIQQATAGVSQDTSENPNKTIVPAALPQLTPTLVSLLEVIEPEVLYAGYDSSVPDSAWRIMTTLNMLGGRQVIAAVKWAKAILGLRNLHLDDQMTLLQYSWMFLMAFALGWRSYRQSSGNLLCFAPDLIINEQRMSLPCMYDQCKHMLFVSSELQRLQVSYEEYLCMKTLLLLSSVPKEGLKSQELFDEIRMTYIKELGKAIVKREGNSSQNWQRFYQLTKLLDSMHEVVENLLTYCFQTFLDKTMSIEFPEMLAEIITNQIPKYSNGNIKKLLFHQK
In words: Agonist activity at glucocorticoid receptor in rat PBMC assessed as inhibition of LPS-stimulated TNF-alpha release.

The next data set has as its target T3, Androgen receptor (Homo sapiens, UniProt P10275).
T3 sequence (P10275 whole entry): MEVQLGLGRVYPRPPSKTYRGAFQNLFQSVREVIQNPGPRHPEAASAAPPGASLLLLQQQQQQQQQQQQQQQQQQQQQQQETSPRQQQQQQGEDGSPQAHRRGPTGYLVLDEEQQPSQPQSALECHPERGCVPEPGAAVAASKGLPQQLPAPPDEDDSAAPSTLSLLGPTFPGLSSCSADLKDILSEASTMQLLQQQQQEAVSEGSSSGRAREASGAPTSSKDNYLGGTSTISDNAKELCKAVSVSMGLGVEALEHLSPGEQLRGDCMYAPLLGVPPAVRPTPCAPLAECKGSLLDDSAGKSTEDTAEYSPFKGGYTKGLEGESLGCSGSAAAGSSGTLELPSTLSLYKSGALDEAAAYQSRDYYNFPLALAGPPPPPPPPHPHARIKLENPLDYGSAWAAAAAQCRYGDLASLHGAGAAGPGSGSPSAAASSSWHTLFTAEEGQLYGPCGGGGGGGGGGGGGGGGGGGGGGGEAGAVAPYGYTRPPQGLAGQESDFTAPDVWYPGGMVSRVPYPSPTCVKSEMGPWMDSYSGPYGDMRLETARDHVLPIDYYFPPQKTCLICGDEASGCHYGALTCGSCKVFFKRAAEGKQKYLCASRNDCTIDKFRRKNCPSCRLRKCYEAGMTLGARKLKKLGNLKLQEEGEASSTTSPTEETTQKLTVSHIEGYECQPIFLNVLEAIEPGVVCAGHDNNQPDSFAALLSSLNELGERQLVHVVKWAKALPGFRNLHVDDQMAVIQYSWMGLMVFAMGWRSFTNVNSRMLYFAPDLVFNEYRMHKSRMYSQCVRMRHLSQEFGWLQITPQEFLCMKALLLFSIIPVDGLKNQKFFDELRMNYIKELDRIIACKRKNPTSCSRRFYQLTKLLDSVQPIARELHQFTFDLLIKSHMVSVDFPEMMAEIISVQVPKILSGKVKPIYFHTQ
In words: Binding affinity to androgen receptor (unknown origin).

The target in the next data set is Cytochrome P450 3A4 (Homo sapiens, UniProt P08684). In words: Inhibition of CYP3A4 (unknown origin). In kind it is ADME.
In data set [8] the test system is Hepatocyte. In words: Intrinsic clearance in human hepatocytes. It is filed as ADME, cell-based.
The subject of data set [9] is Rattus norvegicus. In words: Antiinflammatory activity in rat assessed as inhibition of LPS-induced lung edema at 10 ug/kg, administered intratracheally 2 hrs prior to LPS challenge measured after 4 hrs relative to control. It is filed as functional. The following applies: inhaled or nasal.
A further data set has as its target hERG (KCNH2) (Homo sapiens, UniProt Q12809). In words: Inhibition of human ERG channel at 50 uM.
Data set [10] has as its system Hepatocyte. In words: Intrinsic clearance in rat hepatocytes. In kind it is ADME, cell-based.
Another data set concerns the target Cytochrome P450 2C9 (Homo sapiens, UniProt P11712). In words: Inhibition of CYP2C9 (unknown origin). In kind it is ADME.
Data set [11] has as its system Rattus norvegicus. In words: Antiinflammatory activity in rat assessed as inhibition of LPS-induced lung edema at 100 ug/kg, administered intratracheally 2 hrs prior to LPS challenge measured after 4 hrs relative to control. The following applies: inhaled or nasal. In kind it is functional.
Data set [12] concerns Rattus norvegicus. In words: Antiinflammatory activity in rat assessed as inhibition of LPS-induced leukocyte influx to broncho-alveolar lavage fluid at 10 ug/kg, administered intratracheally 2 hrs prior to LPS challenge measured after 4 hrs relative to control. It is filed as functional. The settings on record: inhaled or nasal.
The test system of data set [13] is Rattus norvegicus. In words: Antiinflammatory activity in rat assessed as inhibition of LPS-induced lung edema at 30 ug/kg, administered intratracheally 2 hrs prior to LPS challenge measured after 4 hrs relative to control. It is filed as functional. The following applies: inhaled or nasal.
The target of another data set is Cytochrome P450 2D6 (Homo sapiens, UniProt P10635). In words: Inhibition of CYP2D6 (unknown origin). In kind it is ADME.
Another data set has as its target Cytochrome P450 2C19 (Homo sapiens, UniProt P33261). In words: Inhibition of CYP2C19 (unknown origin). It is filed as ADME.
The test system of data set [14] is Mus musculus. In words: Antiinflammatory activity in mouse acute cigarette smoke model assessed as inhibition of neutrophil influx to broncho-alveolar lavage fluid at 30 ug/kg, administered intratracheally 30 mins prior to first cigarette smoke challenge every day for 4 days measured after 24 hrs post last cigarette smoke challenge relative to control. The settings on record: inhaled or nasal.

The test system of data set [15] is Mus musculus. In words: Antiinflammatory activity in mouse acute cigarette smoke model assessed as inhibition of neutrophil influx to broncho-alveolar lavage fluid at 300 ug/kg, administered intratracheally 30 mins prior to first cigarette smoke challenge every day for 4 days measured after 24 hrs post last cigarette smoke challenge relative to control. The settings on record: inhaled or nasal.

A word on the inhibition in vivo: it is how much of the control response was suppressed. For orientation: IC50 means the point on the concentration scale where inhibition reaches its midpoint. As a reminder, the logD is the decadic logarithm of the distribution of all forms, ionised or not, between an organic phase and buffer at a given pH. By inhibition is commonly meant the share of the control response that was lost under treatment.

Sequence of hERG (KCNH2) (Q12809 whole entry): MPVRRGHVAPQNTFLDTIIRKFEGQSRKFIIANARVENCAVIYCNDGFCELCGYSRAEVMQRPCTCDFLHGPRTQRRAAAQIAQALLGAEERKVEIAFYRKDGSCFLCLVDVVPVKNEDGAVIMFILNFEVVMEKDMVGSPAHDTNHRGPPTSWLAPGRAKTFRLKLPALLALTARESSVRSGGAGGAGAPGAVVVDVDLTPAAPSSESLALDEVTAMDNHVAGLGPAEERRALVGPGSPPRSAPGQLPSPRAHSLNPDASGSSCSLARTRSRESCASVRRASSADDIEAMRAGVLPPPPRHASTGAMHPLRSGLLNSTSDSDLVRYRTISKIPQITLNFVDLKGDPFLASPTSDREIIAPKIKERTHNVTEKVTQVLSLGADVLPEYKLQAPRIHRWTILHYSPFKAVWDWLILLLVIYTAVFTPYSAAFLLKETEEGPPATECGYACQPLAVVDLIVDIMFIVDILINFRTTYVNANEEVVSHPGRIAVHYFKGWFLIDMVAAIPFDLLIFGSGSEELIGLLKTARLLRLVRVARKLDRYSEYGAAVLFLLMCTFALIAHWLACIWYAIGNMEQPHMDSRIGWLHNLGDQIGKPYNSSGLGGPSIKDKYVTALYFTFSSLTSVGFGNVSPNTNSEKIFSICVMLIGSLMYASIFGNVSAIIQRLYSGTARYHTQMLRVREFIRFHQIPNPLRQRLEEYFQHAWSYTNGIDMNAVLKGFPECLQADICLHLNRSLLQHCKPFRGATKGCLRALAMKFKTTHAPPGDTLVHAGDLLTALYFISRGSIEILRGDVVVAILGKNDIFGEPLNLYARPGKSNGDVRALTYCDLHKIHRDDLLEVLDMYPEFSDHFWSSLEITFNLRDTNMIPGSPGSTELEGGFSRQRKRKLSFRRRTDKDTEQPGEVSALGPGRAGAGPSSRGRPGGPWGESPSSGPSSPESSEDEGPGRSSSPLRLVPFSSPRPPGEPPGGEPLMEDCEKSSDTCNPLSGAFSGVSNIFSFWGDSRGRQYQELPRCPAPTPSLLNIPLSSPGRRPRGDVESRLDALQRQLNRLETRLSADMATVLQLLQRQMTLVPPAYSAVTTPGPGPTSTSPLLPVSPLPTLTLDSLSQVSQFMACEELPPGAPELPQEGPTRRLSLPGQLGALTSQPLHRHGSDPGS
Sequence of Cytochrome P450 2C9 (P11712 whole entry): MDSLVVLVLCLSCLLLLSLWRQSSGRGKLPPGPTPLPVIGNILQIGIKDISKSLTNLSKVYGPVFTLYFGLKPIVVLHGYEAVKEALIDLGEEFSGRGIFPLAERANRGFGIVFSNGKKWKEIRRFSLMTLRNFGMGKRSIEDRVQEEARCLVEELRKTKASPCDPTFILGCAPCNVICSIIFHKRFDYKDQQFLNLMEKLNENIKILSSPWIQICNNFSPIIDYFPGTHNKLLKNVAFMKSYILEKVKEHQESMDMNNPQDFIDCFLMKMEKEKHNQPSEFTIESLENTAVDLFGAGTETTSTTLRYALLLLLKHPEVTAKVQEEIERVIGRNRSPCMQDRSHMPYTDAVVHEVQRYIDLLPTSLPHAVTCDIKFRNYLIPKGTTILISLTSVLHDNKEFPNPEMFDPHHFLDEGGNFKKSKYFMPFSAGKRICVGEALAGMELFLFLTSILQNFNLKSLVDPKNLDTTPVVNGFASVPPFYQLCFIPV
Sequence of Cytochrome P450 3A4 (P08684 whole entry): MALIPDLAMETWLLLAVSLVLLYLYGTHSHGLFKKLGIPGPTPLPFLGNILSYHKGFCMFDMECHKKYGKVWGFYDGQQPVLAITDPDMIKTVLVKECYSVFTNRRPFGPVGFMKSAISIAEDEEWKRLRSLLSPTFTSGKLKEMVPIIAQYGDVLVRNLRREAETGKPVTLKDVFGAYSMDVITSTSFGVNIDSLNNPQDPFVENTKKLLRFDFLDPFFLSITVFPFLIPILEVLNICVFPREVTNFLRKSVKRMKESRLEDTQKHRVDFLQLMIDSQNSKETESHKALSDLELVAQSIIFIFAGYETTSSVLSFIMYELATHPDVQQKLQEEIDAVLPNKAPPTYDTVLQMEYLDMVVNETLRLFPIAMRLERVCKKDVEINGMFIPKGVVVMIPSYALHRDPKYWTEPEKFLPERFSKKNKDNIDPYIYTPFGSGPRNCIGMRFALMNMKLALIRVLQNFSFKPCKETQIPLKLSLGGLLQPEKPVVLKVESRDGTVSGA
Sequence of Cytochrome P450 2D6 (P10635 whole entry): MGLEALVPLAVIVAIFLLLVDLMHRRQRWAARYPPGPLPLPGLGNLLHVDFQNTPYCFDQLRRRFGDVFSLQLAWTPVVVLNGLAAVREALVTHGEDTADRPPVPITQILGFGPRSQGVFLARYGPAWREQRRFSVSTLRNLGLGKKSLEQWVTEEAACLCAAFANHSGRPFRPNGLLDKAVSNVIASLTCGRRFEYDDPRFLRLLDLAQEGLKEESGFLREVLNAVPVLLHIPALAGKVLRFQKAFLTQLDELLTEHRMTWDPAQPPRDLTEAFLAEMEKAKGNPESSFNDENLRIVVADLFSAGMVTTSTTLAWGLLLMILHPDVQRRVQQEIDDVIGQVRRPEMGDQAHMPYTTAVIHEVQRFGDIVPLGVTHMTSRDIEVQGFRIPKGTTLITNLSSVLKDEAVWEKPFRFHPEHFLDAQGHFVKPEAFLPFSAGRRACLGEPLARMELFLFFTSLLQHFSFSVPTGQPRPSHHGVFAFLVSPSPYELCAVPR
Sequence of Cytochrome P450 2C19 (P33261 whole entry): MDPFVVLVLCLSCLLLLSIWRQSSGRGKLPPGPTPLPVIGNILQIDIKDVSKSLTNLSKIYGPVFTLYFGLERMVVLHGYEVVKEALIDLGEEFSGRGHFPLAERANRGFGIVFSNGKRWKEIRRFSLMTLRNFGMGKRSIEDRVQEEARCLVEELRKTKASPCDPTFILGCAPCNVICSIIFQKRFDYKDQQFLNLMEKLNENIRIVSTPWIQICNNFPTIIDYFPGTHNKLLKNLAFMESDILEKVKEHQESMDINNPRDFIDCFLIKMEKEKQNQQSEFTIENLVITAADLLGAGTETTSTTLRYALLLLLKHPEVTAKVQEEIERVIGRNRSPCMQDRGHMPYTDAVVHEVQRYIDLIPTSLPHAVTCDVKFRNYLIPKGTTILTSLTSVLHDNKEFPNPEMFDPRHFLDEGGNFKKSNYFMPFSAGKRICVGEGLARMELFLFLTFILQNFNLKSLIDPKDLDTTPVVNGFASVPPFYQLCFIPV

In the case of `Cc1cc(C)c(S(=O)(=O)N[C@@H](C)CNc2cccc3c2cnn3-c2ccc(F)cc2)c(C)c1`, in the data set on Lung, the Drug uptake is recorded as 50%. Besides, the solubility thermodynamic at 24 h was less than 0.2 µM in data set [1] and less than 0.43 µM in data set [7]. Also, the inhibition in vivo at 0.03 mg/kg was determined as 90% in the data set with Rattus norvegicus [2], 42% with Rattus norvegicus [13] and 36% with Mus musculus [14]. Moreover, the IC50 against Cytochrome P450 1A2 is more than 20 µM; at Glucocorticoid receptor, 0.0009 µM; at Androgen receptor, more than 1 µM; at Cytochrome P450 3A4 it was 10 µM; against Cytochrome P450 2C9, 7.9 µM; at Cytochrome P450 2D6 it was more than 20 µM. This molecule also registered an IC50 on Cytochrome P450 2C19 of more than 20 µM. This molecule yielded a Fu in the data set on Plasma of less than 0.003%. In addition, the inhibition in vivo at 0.01 mg/kg in the data set on Mus musculus [3] stood at 0%; in the data set on Rattus norvegicus [9], 32%; with Rattus norvegicus [12], 37%. Further, in data set [4], the pH-dependent lipophilicity (logD) worked out at 4.1. In addition, the inhibition in vivo at 0.1 mg/kg in the data set with Rattus norvegicus [5] worked out at 85%; in the data set with Mus musculus [6] it was 23%; with Rattus norvegicus [11], 56%. Further, the CLH was found to be 18 µL/min with Hepatocyte [8] and 13 µL/min in the data set on Hepatocyte [10]. On hERG (KCNH2), this molecule showed an inhibition at 50 µM of less than 25%.

As to `CCCC1O[C@@H]2C[C@H]3[C@@H]4CCC5=CC(=O)C=C[C@]5(C)[C@H]4[C@@H](O)C[C@]3(C)[C@]2(C(=O)CO)O1` (stereo not given in full) [BUDESONIDE], the inhibition in vivo at 0.3 mg/kg in the data set on Mus musculus [15] was 38%.

(Values after ChEMBL document CHEMBL3259563, “The discovery of potent and selective non-steroidal glucocorticoid receptor modulators, suitable for inhalation” (Bioorg Med Chem Lett, 2014).)
